Experimental data as given in patent publication US10350311B2, “Iohexol powder and method of using the same” (Otsuka Pharmaceutical Co., Ltd., priority 2014, dated 2019).
Values belong to the compound of their own block, whether it stands above or below them.

Columns and labels:
Assay type in all cases: physicochemical
[1] = Skeletal density by helium pycnometer; details: for Skeletal density: Table 5, Example 3; for Skeletal density (g/cm3): Table 6
Description: As used herein, the term “interparticle spacing” denotes the percentage of the “bulk” particle volume which is free space. The interparticle spacing can be calculated from the bulk density and skeletal density. As discussed above, bulk density refers to the density determined by dividing the weight of the sample by its measured volume, for example using the USP <616> method. The skeletal density, sometimes referred to as the “true density,” is determined by dividing the weight of a sample by its “true” volume—i.e., the volume excluding interstitial voids and any open porosity in the sample (e.g., determined by gas displacement techniques). […] The porosity of the iohexol particles was also investigated using mercury intrusion, and the skeletal density was determined by helium pycnometer and physical adsorption of nitrogen.

[2] = Specific surface area by low-temperature nitrogen adsorption (BET); details: for Specific Area measured [m^2/g] / Specific Area estimated [m^2/g] / Relative desorbed amount Ad/Ad(crystallized): Table 5; for Specific Area measured [m^2/g]: BET isotherm, nitrogen adsorption; for Specific Area estimated [m^2/g]: calculated from SEM geometry assuming non-porous spheres; for Relative desorbed amount Ad/Ad(crystallized): nitrogen desorbed relative to crystallized iohexol; for Specific surface area m^2/g: Table 6, Example 5
Description: Specific surface area was measured using a low-temperature nitrogen adsorption apparatus, a Pulse Chemisorb 2700.
The specific surface area data, which were evaluated using a BET isotherm, support the nonporous nature/character of the particles. The measured value of the specific surface area was about 2.8 m^2/g, which is consistent with the calculation of the specific surface area of hypothetical material which consists of non-porous spheres with a radius of 3 μm. Considering the skeletal density of crystallized iohexol (2.097 g/cm3), the calculated specific surface area of this hypothetical material is about 4 m^2/g. All data provided by analyses appear to support the conclusion that the crystallized iohexol solid material contains agglomerates consisting of small nonporous particles and that the total specific area is the sum of the outer surface areas of these particles.
Experimentally obtained values of the specific surface area are very low, which is typical of macroporous to non-porous materials. Experimental specific surface area values for all samples are in good agreement with the estimated values based on SEM image analysis, (calculating the particle surface area based on the geometrical shape of particles, i.e., and assuming that the particles are not porous (confirmed by mercury porosimetry as discussed above). Individual values and comparisons of the amount of nitrogen desorption for each sample are summarized in Table 5.

[3] = Dissolution time in water by Modified United States Pharmacopeia Method 641
Description: As used herein, the term “Modified United States Pharmacopeia Method 641” denotes a modified form of the Standard United States Pharmacopeia Method 641, where the Modified United States Pharmacopeia Method 641 is carried out as follows: • Place 1.8 g of the particulate iohexol in a meticulously clean, glass-stoppered, 50 mL glass cylinder approximately 1:10 diameter to height in size. • Fill 40 mL of tap water adjusted to 10° C. (±2° C.) into the glass cylinder. • Immediately start shaking the glass cylinder and start recording total time. • Shake the glass cylinder with an up and down movement, keeping the frequency at 12-13 movements per 5 seconds. • After 20 seconds observe for 3 seconds for completeness of dissolution. • Evaluate after 3 seconds, when the bubbles disappear, comparing with pure solvent. • If dissolved completely, record “dissolved in 20 seconds”. • If not dissolved completely, continue shaking for a total time 30 sec • Repeat the dissolution evaluation at 30 seconds, 40 seconds, 1 min., and 1 min. 30 seconds. • Always repeat the dissolution evaluation using the same procedure. • If dissolved completely at time point 1 min 30 sec, record “dissolved in NMT 1 min 30 sec”. • If not dissolved, record “not dissolved in 1 min 30 sec”. 20 oz (600 ml) modified beverage PET bottle for Iohexol Powder for Oral Solution product; 50 ml testing glass cylinder; Tap water. Samples were tested using the Modified USP Method <641> as described herein.

[4] = Particle size distribution (D10, D50, D90); details: for Particle Size distribution (μm) D50: Table 6, Example 5; for Particle Size distribution (μm) D10 / Particle Size distribution (μm) D90: Table 6
Excerpt: As used herein, the “D90” of a particulate material denotes a diameter value for the particles in the material at which about 90% of the particles have a diameter below the diameter value. For example, in a sample with a D90 of 20 μm, 90% of the particles in the sample have a diameter of 20 μm or less. As used herein, the “D50” of a material denotes a diameter value for the particles in the material at which about 50% of the particles have a diameter below the diameter value. For example, in a sample with a D50 of 10 μm, 50% of the particles in the sample have a diameter of 10 μm or less. As used herein, the “D10” of a material denotes a diameter value for the particles in the material at which about 10% of the particles have a diameter below the diameter value. For example, in a sample with a D10 of 5 μm, 10% of the particles in the sample have a diameter of 5 μm or less.

Bulk density = details: Table 6
Excerpt: As used herein, the term “bulk density” of a material denotes total mass of the material divided by the total volume occupied by the material. As used herein, the term “interparticle spacing” denotes the percentage of the “bulk” particle volume which is free space. The interparticle spacing can be calculated from the bulk density and skeletal density. As discussed above, bulk density refers to the density determined by dividing the weight of the sample by its measured volume, for example using the USP <616> method. The skeletal density, sometimes referred to as the “true density,” is determined by dividing the weight of a sample by its “true” volume—i.e., the volume excluding interstitial voids and any open porosity in the sample (e.g., determined by gas displacement techniques). Interparticle spacing can be calculated from the bulk density and skeletal density as exemplified herein: if the bulk density of a particular iohexol sample is ˜0.9 g/cm^3, the corresponding “bulk” volume for 1 g of the sample is 1.11 cm^3; and if the skeletal density of the sample is ˜2 g/cm^3, the corresponding “skeletal” volume (i.e. volume with porosity excluded) for 1 g of this sample is 0.5 cm^3. The difference between the “bulk” volume and “skeletal” volume, 0.61 cm^3, represents the volume of the free space (porosity) in the particle. The interparticle spacing is the difference between the “skeletal” volume and bulk volume, divided by the “bulk” volume, expressed as a percentage (i.e. 0.61 cm^3/1.11 cm^3=55% in this example).

[5] = Interparticle spacing calculated from bulk and skeletal density
Description: As used herein, the term “interparticle spacing” denotes the percentage of the “bulk” particle volume which is free space. The interparticle spacing can be calculated from the bulk density and skeletal density. As discussed above, bulk density refers to the density determined by dividing the weight of the sample by its measured volume, for example using the USP <616> method. The skeletal density, sometimes referred to as the “true density,” is determined by dividing the weight of a sample by its “true” volume—i.e., the volume excluding interstitial voids and any open porosity in the sample (e.g., determined by gas displacement techniques).

[6] = Exposure to air humidity / moisture uptake; details: exposed to ambient air humidity for 120 hours, SEM
Description: Crystallized iohexol samples were also examined by SME analysis for the influence of air humidity (i.e., humidity of ambient/room air). Crystallized iohexol samples were exposed to air humidity for 120 hours.

Compound: CC(=O)N(CC(O)CO)c1c(I)c(C(=O)NCC(O)CO)c(I)c(C(=O)NCC(O)CO)c1I (centres unmarked) [SDI, iohexol]
Skeletal density [1]: 2.029 g/mL
Skeletal density ([1]; listed as spray dried iohexol): 2.029 g/mL
Specific Area measured [m^2/g] [2]: <1 m^2/g
Specific Area measured [m^2/g] ([2]; listed as spray dried iohexol): less than 1 m^2/g
Specific Area estimated [m^2/g] [2]: 0.5^b m^2/g
Relative desorbed amount Ad/Ad(crystallized) [2]: 0.08
Specific surface area m^2/g ([2]; listed as spray dried iohexol): about 0.5 m^2/g

Compound: CC(=O)N(CC(O)CO)c1c(I)c(C(=O)NCC(O)CO)c(I)c(C(=O)NCC(O)CO)c1I (centres unmarked) [Batch 03302012, iohexol]
Dissolution time ([3]; Table 4, 1.8 g in 40 mL tap water at 10° C., manual shaking, listed as 03302012): 40 s
Dissolution time ([3]; Table 6, Example 5, listed as 03302012): 40 s
Specific surface area m^2/g ([2]; listed as 03302012): 4.00 m^2/g
Particle Size distribution (μm) D50 ([4]; listed as 03302012): 10 μm
Particle Size distribution (μm) D10 ([4]; listed as 03302012): 5 μm
Particle Size distribution (μm) D90 ([4]; listed as 03302012): 16 μm
Bulk density (g/cm3) (Bulk density; listed as 03302012): 0.56 g/cm3
Interparticle space (% of bulk volume) ([5]; Table 6, listed as 03302012): 73 % of bulk volume

Compound: CC(=O)N(CC(O)CO)c1c(I)c(C(=O)NCC(O)CO)c(I)c(C(=O)NCC(O)CO)c1I (centres unmarked) [Conventional Sample #1, iohexol]
Dissolution time ([3]; Table 6, Example 5): 90 s
Skeletal density (g/cm3) [1]: 2.0 g/cm3
Specific surface area m^2/g [2]: 0.50 m^2/g
Particle Size distribution (μm) D10 [4]: 7 μm
Particle Size distribution (μm) D90 [4]: 61 μm
Particle Size distribution (μm) D50 [4]: 27 μm
Bulk density (g/cm3) (Bulk density): 0.90 g/cm3
Interparticle space (% of bulk volume) ([5]; Table 6): 56 % of bulk volume

Compound: CC(=O)N(CC(O)CO)c1c(I)c(C(=O)NCC(O)CO)c(I)c(C(=O)NCC(O)CO)c1I (centres unmarked) [Batch 03202012/9, iohexol]
Dissolution time ([3]; Table 4, 1.8 g in 40 mL tap water at 10° C., manual shaking, listed as 03202012/9): 60 s
Dissolution time ([3]; Table 6, Example 5, listed as 03202012/9): 60 s
Skeletal density (g/cm3) [1]: 2.0 g/cm3
Specific surface area m^2/g ([2]; listed as 03202012/9): 0.50 m^2/g
Particle Size distribution (μm) D50 ([4]; listed as 03202012/9): 20 μm
Particle Size distribution (μm) D10 ([4]; listed as 03202012/9): 11 μm
Particle Size distribution (μm) D90 ([4]; listed as 03202012/9): 35 μm
Bulk density (g/cm3) (Bulk density; listed as 03202012/9): 0.90 g/cm3
Interparticle space (% of bulk volume) ([5]; Table 6, listed as 03202012/9): 56 % of bulk volume

Compound: CC(=O)N(CC(O)CO)c1c(I)c(C(=O)NCC(O)CO)c(I)c(C(=O)NCC(O)CO)c1I (centres unmarked) [Batch 03202012/1, iohexol]
Dissolution time ([3]; Table 4, 1.8 g in 40 mL tap water at 10° C., manual shaking, listed as 03202012/1): 60 s
Dissolution time ([3]; Table 6, Example 5, listed as 03202012/1): 60 s
Skeletal density (g/cm3) [1]: 2.0 g/cm3
Specific surface area m^2/g ([2]; listed as 03202012/1): 0.50 m^2/g
Particle Size distribution (μm) D50 ([4]; listed as 03202012/1): 14 μm
Particle Size distribution (μm) D10 ([4]; listed as 03202012/1): 9 μm
Particle Size distribution (μm) D90 ([4]; listed as 03202012/1): 22 μm
Bulk density (g/cm3) (Bulk density; listed as 03202012/1): 0.90 g/cm3
Interparticle space (% of bulk volume) ([5]; Table 6, listed as 03202012/1): 56 % of bulk volume

Compound: CC(=O)N(CC(O)CO)c1c(I)c(C(=O)NCC(O)CO)c(I)c(C(=O)NCC(O)CO)c1I (centres unmarked) [Batch 01206013, iohexol]
Dissolution time ([3]; Table 4, 1.8 g in 40 mL tap water at 10° C., manual shaking, listed as 01206013): 40 s
Dissolution time ([3]; Table 6, Example 5, listed as 01206013): 40 s
Specific surface area m^2/g ([2]; listed as 01206013): 4.00 m^2/g
Particle Size distribution (μm) D50 ([4]; listed as 01206013): 10 μm
Particle Size distribution (μm) D10 ([4]; listed as 01206013): 5 μm
Particle Size distribution (μm) D90 ([4]; listed as 01206013): 15 μm
Bulk density (g/cm3) (Bulk density; listed as 01206013): 0.56 g/cm3
Interparticle space (% of bulk volume) ([5]; Table 6, listed as 01206013): 73 % of bulk volume

Second part, led by results:

Dissolution time ([3]; Table 4, 1.8 g in 40 mL tap water at 10° C., manual shaking, listed as 03202012/8): 40 s
Dissolution time ([3]; Table 6, Example 5, listed as 03202012/8): 40 s
Skeletal density (g/cm3) [1]: 2.0 g/cm3
Specific surface area m^2/g ([2]; listed as 03202012/8): 0.50 m^2/g
Particle Size distribution (μm) D50 ([4]; listed as 03202012/8): 12 μm
Particle Size distribution (μm) D10 ([4]; listed as 03202012/8): 7 μm
Particle Size distribution (μm) D90 ([4]; listed as 03202012/8): 19 μm
Bulk density (g/cm3) (Bulk density; listed as 03202012/8): 0.90 g/cm3
Interparticle space (% of bulk volume) ([5]; Table 6, listed as 03202012/8): 56 % of bulk volume
Compound: CC(=O)N(CC(O)CO)c1c(I)c(C(=O)NCC(O)CO)c(I)c(C(=O)NCC(O)CO)c1I (centres unmarked) [Batch 03202012/8, iohexol]

Dissolution time ([3]; Table 6, Example 5): 90 s
Skeletal density (g/cm3) [1]: 2.0 g/cm3
Specific surface area m^2/g [2]: 0.50 m^2/g
Particle Size distribution (μm) D10 [4]: 7 μm
Particle Size distribution (μm) D90 [4]: 66 μm
Particle Size distribution (μm) D50 [4]: 29 μm
Bulk density (g/cm3) (Bulk density): 0.90 g/cm3
Interparticle space (% of bulk volume) ([5]; Table 6): 56 % of bulk volume
Compound: CC(=O)N(CC(O)CO)c1c(I)c(C(=O)NCC(O)CO)c(I)c(C(=O)NCC(O)CO)c1I (centres unmarked) [Conventional Sample #2, iohexol]

Dissolution, in words ([3]; Example 2): dissolved rapidly
Skeletal density [1]: 2.097 g/mL
Skeletal density ([1]; listed as crystallized iohexol): 2.097 g/mL
Specific Area measured [m^2/g] [2]: 2.8 m^2/g
Specific Area measured [m^2/g] ([2]; listed as crystallized iohexol): about 2.8 m^2/g
Specific Area estimated [m^2/g] [2]: 4.0^a m^2/g
Specific Area estimated [m^2/g] ([2]; listed as crystallized iohexol): about 4 m^2/g
Relative desorbed amount Ad/Ad(crystallized) [2]: 1
Specific surface area m^2/g ([2]; listed as crystallized iohexol): about 4 m^2/g
Particle Size distribution (μm) D50 ([4]; listed as crystallized iohexol): 10 μm
Compound: CC(=O)N(CC(O)CO)c1c(I)c(C(=O)NCC(O)CO)c(I)c(C(=O)NCC(O)CO)c1I (centres unmarked) [CRI, iohexol]
Influence of air humidity on the particles [6]: sintering of originally separated particles was observed
